For 22 compounds, Response and IC50 results are on record in US20160199372A1, “IMIDAZOPYRIDAZINE KINASE INHIBITORS USEFUL TO TREATING A DISEASE OR DISORDER MEDIATED BY AAK1, SUCH AS ALZHEIMER'S DISEASE, BIPOLAR DISORDER, PAIN, SCHIZOPHRENIA” (Bristol-Myers Squibb Company, priority 2013, published 2016).

The first experiment concerns mice. Description: formalin paw test (pain response). The format is in vivo, mouse. The note with it: 60 mg/kg sc; administered 30 minutes prior to formalin injection; % response relative to gabapentin 200 mg/kg. How it is done:
AAK1 homozygous (−/−) and their wild-type (+/+) littermates were tested using the formalin paw test in order to assess their acute and tonic nociceptive responses. For these tests, Automatic Nociception Analyzers (purchased from the Ozaki lab at University of California, San Diego) were used. A metal band was placed around the left hind paw of each mouse 30 minutes prior to testing. After the 30-minute acclimation period, 20 μl of 5% formalin is subcutaneously injected in the dorsal surface of the left hind paw. Mice were individually housed in cylindrical chambers for 45 minutes. Fresh 5% formalin solution was prepared by diluting formaldehyde (Formalde-fresh 20%, Fisher Scientific, Fair Lawn, N.J.) with distilled water. Investigatory compounds were administered 30 minutes prior to formalin injection.
A computer recorded flinches per minute, total flinches for phase I (acute phase=first 8 minutes), and total flinches for phase II (tonic phase=time between minutes 20-40 or 10-60 minutes for drug studies) through an electromagnetic field. See Yaksh T L, Ozaki G, McCumber D, Rathbun M, Svensson C, Malkmus S, Yaksh M C. An automated flinch detecting system for use in the formalin nociceptive bioassay. J Appl Physiol., 2001; 90:2386-402.
The same test was used to confirm that the administration of an AAK1 inhibitor can also affect pain response. […]
`CC(C)c1nc(-c2cccc(NC(=O)c3cnc4c(Nc5ccccc5)cc(N[C@H]5CC[C@H](N)CC5)nn34)c2)no1` [Example 1, 6-(trans-4-Aminocyclohexylamino)-N-(3-(5-isopropyl-1,2,4-oxadiazol-3-yl)phenyl)-8-(phenylamino)imidazo[1,2-b]pyridazine-3-carboxamide]: the Response came out at 59%.

The same experiment, now with this note: 200 mg/kg sc; administered 30 minutes prior to formalin injection; % response relative to gabapentin 200 mg/kg.
Take `NCC1(CC(=O)O)CCCCC1` [Gabapentin, reference compound]: the Response was 73%.

The target in a further experiment is T1, GST-Xa-hAAK1 (Homo sapiens, UniProt Q2M2I8).
T1 construct: made in house
T1 sequence (Q2M2I8 whole entry): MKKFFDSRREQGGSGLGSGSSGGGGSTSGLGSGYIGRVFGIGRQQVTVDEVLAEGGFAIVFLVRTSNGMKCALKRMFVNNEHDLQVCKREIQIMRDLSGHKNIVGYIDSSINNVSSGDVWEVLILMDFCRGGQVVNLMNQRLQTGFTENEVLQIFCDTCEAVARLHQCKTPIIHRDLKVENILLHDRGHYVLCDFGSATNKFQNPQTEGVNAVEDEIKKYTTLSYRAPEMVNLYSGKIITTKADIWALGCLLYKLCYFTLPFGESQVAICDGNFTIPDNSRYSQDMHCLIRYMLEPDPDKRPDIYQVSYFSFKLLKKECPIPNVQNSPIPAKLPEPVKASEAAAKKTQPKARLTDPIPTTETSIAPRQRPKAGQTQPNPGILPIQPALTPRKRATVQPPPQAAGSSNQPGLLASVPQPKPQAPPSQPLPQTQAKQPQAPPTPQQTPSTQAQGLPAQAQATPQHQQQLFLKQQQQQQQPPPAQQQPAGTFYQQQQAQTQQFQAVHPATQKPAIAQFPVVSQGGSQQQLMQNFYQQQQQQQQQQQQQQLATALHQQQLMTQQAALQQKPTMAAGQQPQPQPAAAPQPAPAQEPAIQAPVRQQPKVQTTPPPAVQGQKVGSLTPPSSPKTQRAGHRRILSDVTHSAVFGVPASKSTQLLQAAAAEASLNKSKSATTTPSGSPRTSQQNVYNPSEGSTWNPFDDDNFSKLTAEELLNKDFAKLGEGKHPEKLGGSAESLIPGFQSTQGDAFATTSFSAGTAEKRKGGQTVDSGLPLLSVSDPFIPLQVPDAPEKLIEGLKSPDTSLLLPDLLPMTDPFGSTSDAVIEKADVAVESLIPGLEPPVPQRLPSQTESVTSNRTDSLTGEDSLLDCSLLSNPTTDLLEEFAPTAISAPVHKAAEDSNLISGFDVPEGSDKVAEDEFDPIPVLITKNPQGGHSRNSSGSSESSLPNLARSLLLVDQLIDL
Description: AAK1 Kinase Assay. The format is biochemical. The settings on record: ATP 22 μM; GST-Xa-hAAK1 3.5 nM; 3 hours at room temperature; Caliper LabChip 3000. An excerpt: IC50 values were derived by non-linear regression analysis.
With `CC(C)n1nnc(-c2cccc(NC(=O)c3cnc4ccc(N[C@H]5CC[C@H](N)CC5)nn34)c2)n1` [Example 13, 6-(trans-4-Aminocyclohexylamino)-N-(3-(2-isopropyl-2H-tetrazol-5-yl)phenyl)imidazo[1,2-b]pyridazine-3-carboxamide], the IC50 (usually the concentration at which inhibition is half-maximal) worked out at 12 nM.
The compound `CC(C)n1nnc(-c2cccc(NC(=O)c3cnc4c(Nc5ccccc5)cc(N[C@H]5CC[C@H](N)CC5)nn34)c2)n1` [Example 4, 6-(trans-4-Aminocyclohexylamino)-N-(3-(2-isopropyl-2H-tetrazol-5-yl)phenyl)-8-(phenylamino)imidazo[1,2-b]pyridazine-3-carboxamide] gave an IC50 of 5.1 nM. Compared with the last compound, the IC50 is about 2.4-fold lower.
Same read-out and setting: the figure for `N[C@H]1CC[C@H](Nc2cc(Nc3ccccc3)c3ncc(-c4ccsc4)n3n2)CC1` [Example 17, N^6-(trans-4-Aminocyclohexyl)-N^8-phenyl-3-(thiophen-3-yl)imidazo[1,2-b]pyridazine-6,8-diamine] is 10 nM.
On the same count and under the same terms, the figure for `CNc1cc(N[C@H]2CC[C@H](N)CC2)nn2c(C(=O)Nc3cccc(-c4nnn(C(C)C)n4)c3)cnc12` [Example 9, 6-(trans-4-Aminocyclohexylamino)-N-(3-(2-isopropyl-2H-tetrazol-5-yl)phenyl)-8-(methylamino)imidazo[1,2-b]pyridazine-3-carboxamide] is 8 nM.
The same measure, in the same setting: the figure for `CN(C)[C@H]1CC[C@H](Nc2cc(Nc3ccccc3)c3ncc(-c4ccsc4)n3n2)CC1` [Example 19, N^6-(trans-4-(Dimethylamino)cyclohexyl)-N^8-phenyl-3-(thiophen-3-yl)imidazo[1,2-b]pyridazine-6,8-diamine] is 12 nM.
`Cc1nc(-c2cccc(NC(=O)c3cnc4c(Nc5ccccc5)cc(N[C@H]5CC[C@H](N)CC5)nn34)c2)cs1` [Example 7, 6-(trans-4-Aminocyclohexylamino)-N-(3-(2-methylthiazol-4-yl)phenyl)-8-(phenylamino)imidazo[1,2-b]pyridazine-3-carboxamide] registered a half-inhibitory concentration (IC50) of 114 nM.
Same read-out and setting: the figure for `N[C@H]1CC[C@H](Nc2cc(NC3CC3)c3ncc(-c4ccsc4)n3n2)CC1` [Example 21, N^6-(trans-4-Aminocyclohexyl)-N^8-cyclopropyl-3-(thiophen-3-yl)imidazo[1,2-b]pyridazine-6,8-diamine] is 40 nM.
With `CC(C)c1nc(-c2cccc(NC(=O)c3cnc4ccc(N[C@H]5CC[C@H](N)CC5)nn34)c2)no1` [Example 11, 6-(trans-4-Aminocyclohexylamino)-N-(3-(5-isopropyl-1,2,4-oxadiazol-3-yl)phenyl)imidazo[1,2-b]pyridazine-3-carboxamide], the IC50 came out at 27 nM.
`CC(C)c1nnc(-c2cccc(NC(=O)c3cnc4ccc(N[C@H]5CC[C@H](N)CC5)nn34)c2)s1` [Example 12, 6-(trans-4-Aminocyclohexylamino)-N-(3-(5-isopropyl-1,3,4-thiadiazol-2-yl)phenyl)imidazo[1,2-b]pyridazine-3-carboxamide] came in with an IC50 of 9.1 nM. This IC50 lies about 3-fold lower than the previous one.
On the same count and under the same terms, the figure for `CNc1cc(N[C@H]2CC[C@H](N)CC2)nn2c(C(=O)Nc3cccc(-c4nnc(C(C)C)s4)c3)cnc12` [Example 8, 6-(trans-4-Aminocyclohexylamino)-N-(3-(5-isopropyl-1,3,4-thiadiazol-2-yl)phenyl)-8-(methylamino)imidazo[1,2-b]pyridazine-3-carboxamide] is 8.9 nM.
Compound `CC(C)c1nc(-c2cccc(NC(=O)c3cnc4c(Nc5ccccc5)cc(N[C@H]5CC[C@H](N)CC5)nn34)c2)no1` [Example 1, 6-(trans-4-Aminocyclohexylamino)-N-(3-(5-isopropyl-1,2,4-oxadiazol-3-yl)phenyl)-8-(phenylamino)imidazo[1,2-b]pyridazine-3-carboxamide] displayed a half-maximal inhibitory concentration (IC50) of 10 nM.
With `Cc1nc(-c2cccc(NC(=O)c3cnc4ccc(N[C@H]5CC[C@H](N)CC5)nn34)c2)co1` [Example 15, 6-(trans-4-Aminocyclohexylamino)-N-(3-(2-methyloxazol-4-yl)phenyl)imidazo[1,2-b]pyridazine-3-carboxamide], inhibition was half-maximal at 342 nM (IC50).
On the same count and under the same terms, the figure for `CC(C)c1nnc(-c2cccc(NC(=O)c3cnc4c(Nc5ccccc5)cc(N[C@H]5CC[C@H](N)CC5)nn34)c2)s1` [Example 2, 6-(trans-4-Aminocyclohexylamino)-N-(3-(5-isopropyl-1,3,4-thiadiazol-2-yl)phenyl)-8-(phenylamino)imidazo[1,2-b]pyridazine-3-carboxamide] is 11 nM; for `CNc1cc(N[C@H]2CC[C@H](N)CC2)nn2c(C(=O)Nc3cccc(-c4noc(C(C)C)n4)c3)cnc12` [Example 10, 6-(trans-4-Aminocyclohexylamino)-N-(3-(5-isopropyl-1,2,4-oxadiazol-3-yl)phenyl)-8-(methylamino)imidazo[1,2-b]pyridazine-3-carboxamide] it is 16 nM.
Still for that read-out and setting: the figure for `N[C@H]1CC[C@H](Nc2ccc3ncc(C(=O)Nc4cccc(-c5coc(-c6ccccc6)n5)c4)n3n2)CC1` [Example 16, 6-(trans-4-Aminocyclohexylamino)-N-(3-(2-phenyloxazol-4-yl)phenyl)imidazo[1,2-b]pyridazine-3-carboxamide] is 154 nM; for `Cc1nc(-c2cccc(NC(=O)c3cnc4c(Nc5ccccc5)cc(N[C@H]5CC[C@H](N)CC5)nn34)c2)co1` [Example 5, 6-(trans-4-Aminocyclohexylamino)-N-(3-(2-methyloxazol-4-yl)phenyl)-8-(phenylamino)imidazo[1,2-b]pyridazine-3-carboxamide] it is 79 nM; for `COc1ccc(Nc2cc(N[C@H]3CC[C@H](N)CC3)nn3c(-c4ccsc4)cnc23)cc1` [Example 22, N^6-(trans-4-Aminocyclohexyl)-N^8-(4-methoxyphenyl)-3-(thiophen-3-yl)imidazo[1,2-b]pyridazine-6,8-diamine] it is 9 nM.
Still for that read-out and setting: the figure for `CNc1cc(N[C@H]2CC[C@H](N)CC2)nn2c(-c3ccsc3)cnc12` [Example 20, N^6-(trans-4-Aminocyclohexyl)-N^8-methyl-3-(thiophen-3-yl)imidazo[1,2-b]pyridazine-6,8-diamine] is 38 nM; for `N[C@H]1CC[C@H](Nc2cc(Nc3ccccc3)c3ncc(C(=O)Nc4cccc(-c5coc(-c6ccccc6)n5)c4)n3n2)CC1` [Example 6, 6-(trans-4-Aminocyclohexylamino)-8-(phenylamino)-N-(3-(2-phenyloxazol-4-yl)phenyl)imidazo[1,2-b]pyridazine-3-carboxamide] it is 940 nM; for `CC(C)c1nc(-c2cccc(NC(=O)c3cnc4ccc(N[C@H]5CC[C@H](N)CC5)nn34)c2)co1` [Example 14, 6-(trans-4-Aminocyclohexylamino)-N-(3-(2-isopropyloxazol-4-yl)phenyl)imidazo[1,2-b]pyridazine-3-carboxamide] it is 158 nM.
`CC(C)c1nc(-c2cccc(NC(=O)c3cnc4c(Nc5ccccc5)cc(N[C@H]5CC[C@H](N)CC5)nn34)c2)co1` [Example 3, 6-(trans-4-Aminocyclohexylamino)-N-(3-(2-isopropyloxazol-4-yl)phenyl)-8-(phenylamino)imidazo[1,2-b]pyridazine-3-carboxamide] had an IC50 of 94 nM.
